In patent US20250197865A1, “PHARMACEUTICAL COMPOSITION FOR TREATMENT OR PREVENTION OF FIBROTIC DISEASE” (KYUSHU UNIVERSITY, NATIONAL UNIVERSITY CORPORATION, priority 2022, published 2025):

Columns and labels:
Type in all cases: cell-based, mouse
P4HA3 mRNA [1] = assay: siRNA treatment of myofibroblasts from carbon tetrachloride-induced fibrotic liver, P4HA3 mRNA by real-time RT-PCR; settings: for mRNA expression of P4HA3: myofibroblasts from transiently fibrotic liver, siRNA 3.125 nM, FIG. 9
Description: (§1) The mRNA expression levels of P4HA3 etc. in the examples of the present specification were quantified as follows. The concentration of purified RNA was determined using a microspectrophotometer DS-11 (DeNovix), and reverse transcription to cDNA was performed using a High Capacity cDNA Reverse Transcription Kit (Applied Biosystems). Quantification of mRNA was performed according to the protocol of Luna Universal qPCR Master Mix (New England BioLabs), with DNA polymerase activation at 95° C. for 60 seconds, followed by 45 cycles of cDNA denaturation at 95° C. for 15 seconds and extension at 60° C. for 30 seconds. Analysis was performed by the AACt method using GAPDH as an internal standard. Mouse Cyp7al probe was purchased from Applied Biosystems. Primers and probes for mouse α-smooth muscle actin (α-SMA), CD68, 1α1 collagen (Col1α1), 1α2 collagen (Col1α2), 1α3 collagen (Col1α3), 6α1 collagen (Col6α1), 8α1 collagen (Co81α1), GAPDH (glyceraldehyde-3-phosphate dehydrogenase), heat shock protein 47 (Hsp47), prolyl 4-hydroxylase alphal subunit (P4HA1), prolyl 4-hydroxylase alpha2 subunit (P4HA2), and prolyl 4-hydroxylase alpha3 subunit (P4HA3) were purchased from Sigma-Aldrich.
As in Example 3, the effect of suppressing P4HA3 mRNA expression on the mRNA expression of other fibrosis-related factors was examined in cultured myofibroblasts isolated from the liver 4 weeks after the start of carbon tetrachloride administration. The liver was removed from a mouse model of carbon tetrachloride (CCl4)-induced fibrotic livers and divided into small pieces. After that, the liver pieces were washed with washing buffer [25 mM HEPES/[…]/HBSS(-)], and the cell solution containing myofibroblasts was collected by shaking the liver pieces three times for 30 min at 37° C. in . . . digestion buffer [0.1% Collagenase A/15 mM HEPES/HBSS(-)]. After that, blood cell components were removed with Red Blood Cell Lysis Buffer, and the cells were suspended in 10% FBS/1% Penicillin-Streptomycin/DMEM, and then seeded on a culture plate. After 6 hr, the medium was replaced to remove non-adherent cells and debris. After that, the cells were cultured overnight in a CO2 incubator, and non-adherent cells were again removed by washing with PBS, and adherent cells were collected using Accutase. After 20 min of reaction with CD45 antibody labeled with magnetic beads, CD45-positive blood cells were removed by MACS (magnetic cell sorting) using an LS column, and CD45-negative cells were collected as myofibroblasts. After that, the purity of the isolated myofibroblasts was measured using FACS verse, and almost all of the CD45-negative cells after MACS were positive for α-SMA, a myofibroblast marker, and almost no contamination with blood cells was observed. […]

Hsp47 mRNA = assay: siRNA treatment of myofibroblasts from carbon tetrachloride-induced fibrotic liver, Hsp47 mRNA by real-time RT-PCR
Description: (§2) The mRNA expression levels of P4HA3 etc. in the examples of the present specification were quantified as follows. The concentration of purified RNA was determined using a microspectrophotometer DS-11 (DeNovix), and reverse transcription to cDNA was performed using a High Capacity cDNA Reverse Transcription Kit (Applied Biosystems). Quantification of mRNA was performed according to the protocol of Luna Universal qPCR Master Mix (New England BioLabs), with DNA polymerase activation at 95° C. for 60 seconds, followed by 45 cycles of cDNA denaturation at 95° C. for 15 seconds and extension at 60° C. for 30 seconds. Analysis was performed by the AACt method using GAPDH as an internal standard. Mouse Cyp7al probe was purchased from Applied Biosystems. […]
As in Example 3, the effect of suppressing P4HA3 mRNA expression on the mRNA expression of other fibrosis-related factors was examined in cultured myofibroblasts isolated from the liver 4 weeks after the start of carbon tetrachloride administration. […] After that, the purity of the isolated myofibroblasts was measured using FACS verse, and almost all of the CD45-negative cells after MACS were positive for α-SMA, a myofibroblast marker, and almost no contamination with blood cells was observed. […]

P4HA3 mRNA [2] = assay: P4HA3 knockdown by siRNA in myofibroblasts isolated from the infarcted area, real-time RT-PCR; settings: siRNA 3.125 nM, versus si Ctrl, FIG. 4
Description: as §2
(§3) Next, the inventors investigated the effect of suppressing P4HA3 mRNA expression on the mRNA expression of other fibrosis-related factors. […] The quantification of mRNA expression levels of P4HA3, etc. in myofibroblasts after siRNA treatment was performed in the same manner as in Example 2.

[3] = tested on: periostin, 1α1 collagen and 3α1 collagen mRNA expression in myofibroblasts; assay: Effect of P4HA3 knockdown on fibrosis-related factor mRNA in myofibroblasts isolated from the infarcted area, real-time RT-PCR; settings: siRNA 3.125 nM, versus si Ctrl, FIG. 4
Description: as §1
Next, the inventors investigated the effect of suppressing P4HA3 mRNA expression on the mRNA expression of other fibrosis-related factors. Myofibroblasts from the infarcted area of myocardial infarction disease model mice were cultured as described above in Nakaya, M. et al. (2017). Briefly, 3 days after coronary artery ligation, the ventricles of treated mice were digested with PBS containing 0.1% collagenase A (Roche Diagnostics) and 0.1% trypsin (Sigma-Aldrich) at 37° C. with agitation. The cells were placed on plates containing 10% FBS/DMEM overnight, and then the medium was replaced to remove non-adherent cells. The attached cells were cultured for more than 6 days and used as myofibroblasts in the following experiments. […] The quantification of mRNA expression levels of P4HA3, etc. in myofibroblasts after siRNA treatment was performed in the same manner as in Example 2.

[4] = tested on: mRNA expression of fibrosis-related factors (collagens, elastin) in myofibroblasts; assay: siRNA treatment of myofibroblasts from carbon tetrachloride-induced fibrotic liver, fibrosis-related factor mRNA by real-time RT-PCR; settings: for mRNA expression of 1α1 collagen / mRNA expression of other fibrosis-related factors: siRNA 3.125 nM, versus si Ctrl
Description: as §1
As in Example 3, the effect of suppressing P4HA3 mRNA expression on the mRNA expression of other fibrosis-related factors was examined in cultured myofibroblasts isolated from the liver 4 weeks after the start of carbon tetrachloride administration. The liver was removed from a mouse model of carbon tetrachloride (CCl4)-induced fibrotic livers and divided into small pieces. After that, the liver pieces were washed with washing buffer [25 mM HEPES/[…]/HBSS(-)], and the cell solution containing myofibroblasts was collected by shaking the liver pieces three times for 30 min at 37° C. in . . . digestion buffer [0.1% Collagenase A/15 mM HEPES/HBSS(-)]. After that, blood cell components were removed with Red Blood Cell Lysis Buffer, and the cells were suspended in 10% FBS/1% Penicillin-Streptomycin/DMEM, and then seeded on a culture plate. After 6 hr, the medium was replaced to remove non-adherent cells and debris. After that, the cells were cultured overnight in a CO2 incubator, and non-adherent cells were again removed by washing with PBS, and adherent cells were collected using Accutase. After 20 min of reaction with CD45 antibody labeled with magnetic beads, CD45-positive blood cells were removed by MACS (magnetic cell sorting) using an LS column, and CD45-negative cells were collected as myofibroblasts. After that, the purity of the isolated myofibroblasts was measured using FACS verse, and almost all of the CD45-negative cells after MACS were positive for α-SMA, a myofibroblast marker, and almost no contamination with blood cells was observed. Si P4HA3 #1 and si P4HA3 #2, ThermoFisher Scientific catalog numbers 4390771 and 4390771 (Assay ID: s115723 and s115721), were added to the myofibroblast culture at a final concentration of 3.125 nM using Lipofectamine RNAiMAX (Invitrogen). In experiments in which si P4HA3 #2 was not used, such as in Example 3, si P4HA3 #1 was used as “si P4HA3”. For siRNA control experiments, Silencer Select Negative Control no. 1 siRNA (ThermoFisher Scientific, catalog number: 4390843) was used as si Ctrl. The nucleotide sequences of the sense and antisense strands of si P4HA3 #1 are listed in the sequence listing attached hereto as SEQ ID NOs: 1 and 2, respectively. The nucleotide sequences of the sense and antisense strands of si P4HA3 #2 are listed in the sequence listing attached hereto as SEQ ID NOs: 3 and 4, respectively.
Si Hsp47 and si P4HA3 #1 from Example 7 were used as knockdown reagents for Hsp47 and P4HA3, respectively. For si Hsp47, ThermoFisher Scientific catalog number 4390771 (Assay ID: s232335) was used. Separation of cell type fractions from livers collected 4 weeks after the start of carbon tetrachloride administration was performed in the same manner as in Example 6. […]

P4HA3 mRNA [5] = assay: P4HA3 knockdown in myofibroblasts from lungs of bleomycin-administered pulmonary fibrosis model mice, real-time RT-PCR; settings: FIG. 11-2
Description: as §2, §3
From the bleomycin-administered pulmonary fibrosis model mouse prepared in the same manner as in Example 4, the lungs were removed 7 days after bleomycin administration. […] Quantification of the mRNA expression levels of Cd68, a blood cell marker, 1α1 collagen, a fibrosis-related factor, and P4HA3 was performed in the same manner as in Example 2. […]

[6] = tested on: 1α1, 3α1 and 14α1 collagen mRNA expression in myofibroblasts; assay: Effect of P4HA3 knockdown on fibrosis-related factor mRNA in myofibroblasts from fibrotic lungs, real-time RT-PCR; settings: myofibroblasts from pulmonary fibrosis model mice; versus si Ctrl; FIG. 11-2
[7] = myofibroblasts from transiently fibrotic liver, FIG. 9

| Substance | P4HA3 mRNA expression (P4HA3 mRNA [1]; myofibroblasts from damaged fibrotic liver, FIG. 21-1 B) | effect of suppressing the mRNA expression of each target gene, si Hsp47 compared with si P4HA3 (Hsp47 mRNA; myofibroblasts from CCl4 fibrotic liver, FIGS. 20A and B) | expression of P4HA3 mRNA (P4HA3 mRNA [2]) | expression of 1α1 collagen mRNA [3] | expression of 3α1 collagen mRNA [3] | expression of periostin mRNA [3] | expression of P4HA3 gene (P4HA3 mRNA [1]; myofibroblasts from CCl4 liver fibrosis model, versus si Ctrl, FIG. 25) | mRNA expression of P4HA3 (P4HA3 mRNA [1]; versus si Ctrl) | effect of suppressing the mRNA expression of fibrosis-related factors, si P4HA3 compared with si Hsp47 ([4]; myofibroblasts from CCl4 fibrotic liver, 1α1, 3α1, 8α1, 14α1 collagen, FIG. 20 C to F) | effect of suppressing the mRNA expression of fibrosis-related factors, single siRNAs and combination compared ([4]; myofibroblasts from damaged fibrotic liver, 1α1, 1α2, 3α1, 8α1, 14α1 collagen, elastin, FIGS. 21-1 C, D and 21-2 A to D) | difference in mRNA expression inhibitory effect between si P4HA3 #1 and si P4HA3 #2 for 3α1 collagen and elastin [4, 7] | inhibitory activity for all mRNA expression, si P4HA3 #1 compared with si P4HA3 #2 ([4]; myofibroblasts from transiently fibrotic liver, P4HA3, collagens, elastin, FIG. 9) | mRNA expression of 1α1 collagen [4, 7] | mRNA expression of other fibrosis-related factors [4, 7] | mRNA expression level of P4HA3 reduced to (P4HA3 mRNA [5]; remaining level relative to si Ctrl) | P4HA3 mRNA expression (P4HA3 mRNA [5]; versus si Ctrl) | mRNA expression level of 1α1 collagen [6] | mRNA expression level of 3α1 collagen [6] | mRNA expression level of 14α1 collagen [6] | Hsp47 mRNA expression (Hsp47 mRNA; myofibroblasts from damaged fibrotic liver, FIG. 21-1 A) |
| --- | --- | --- | --- | --- | --- | --- | --- | --- | --- | --- | --- | --- | --- | --- | --- | --- | --- | --- | --- | --- |
| si Hsp47: siRNA for mouse Hsp47, SEQ ID NOs: 12 and 13; ThermoFisher Scientific catalog 4390771, Assay ID s232335 (chain 1 CGGACAGGCCTGTACAACTTT; chain 2 AGTTGTACAGGCCTGTCCGGT; listed as DNA, chemistry not given here) [reference compound] | did not suppress P4HA3 mRNA expression at all | stronger effect |  |  |  |  |  |  |  |  |  |  |  |  |  |  |  |  |  |  |
| si P4HA3 #1: siRNA #1 against mouse P4HA3, sense/antisense SEQ ID NOs: 1 and 2; ThermoFisher Scientific catalog 4390771, Assay ID s115723 (sense CCACGAGTATGGACAGGAATT; antisense TTCCTGTCCATACTCGTGGAT; listed as DNA, chemistry not given here) |  |  | strongly inhibited | strongly inhibited | strongly inhibited | strongly inhibited | almost completely suppressed | inhibited | stronger effect | higher effect | no significant difference | stronger inhibitory activity than si P4HA3 #2 | inhibited | inhibited | less than 5% | very strongly inhibited | reduced to a fraction of their original levels | reduced to a fraction of their original levels | reduced to a fraction of their original levels | slightly suppressed |
| si P4HA3 #2: siRNA #2 against mouse P4HA3, sense/antisense SEQ ID NOs: 3 and 4; ThermoFisher Scientific catalog 4390771, Assay ID s115721 (sense GCTCATAGCTCTCTACCATTT; antisense ATGGTAGAGAGCTATGAGCGG; listed as DNA, chemistry not given here) |  |  |  |  |  |  |  | inhibited |  |  | no significant difference |  | inhibited | inhibited |  |  |  |  |  |  |
